From patent publication EP0587106B1, “Compositions containing lipophilic salts having neutron activable cations” (VECTORPHARMA INTERNATIONAL S.p.A., priority 1992, dated 1994)
Values after ≈ are worked out from the molar mass of the structure shown.

Test: physchem

- solubility at 24 h (pH 1.2): 90 µg/mL (≈ 394 µM)
- solubility at 24 h (pH 3): 8 µg/mL (≈ 35 µM)
- solubility at 24 h (pH 5.2): < 2 µg/mL
- solubility at 24 h (pH 7): < 2 µg/mL
SMILES: CCCCCCCCCCCCCC(=O)O [Samarium miristate, samarium miristate]
